Among the test systems are T47D; BT-549; LXFL 529; XF498.
Test in all cases: NCI-60 cell line screen, 48 h

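Each compound was tested at five concentrations against cells in 96-well plates for 48 hours. Abbreviation: GI50, concentration required for 50% inhibition of growth.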 The source made the active and inactive calls. Cut-off read from the data, not from the text of the source: active = GI50 up to about 1.1 µM and inactive = higher. Where a SMILES comes first, the peptide text is derived from it. The star is where a group is joined. Boc = CC(C)(C)OC(=O)*; Bn = c1ccc(C*)cc1 Some results are limits rather than exact numbers.

Turning to `CC(C)/C(Cl)=N\OC(=O)NNc1ccccc1`, the GI50 with T47D was 2.35 µM (inactive); with BT-549 it was 17.5 µM (inactive).

As for `CCCCCCCCCCCCCCCCP(=O)(O)OCC(N)C(=O)O` (centres undefined), the GI50 with T47D is > 100 µM (inactive).

On to `O=S1(=O)CCN(Cc2ccccc2)/C1=N\S(=O)(=O)c1ccc(Cl)cc1`, for which the GI50 is 22.2 µM (inactive) in the test on T47D and 17.2 µM (inactive) with BT-549.

In the case of `O=C(O)CN1CCN(CC(=O)O)CCN(CC(=O)O)CCN(CC(=O)O)CC1` [TETRAXETAN], the GI50 in the test with T47D and in the test on BT-549 was > 100 µM (inactive) each time.

In the case of `COc1c(C)c(C/C=C(\C)CC/C=C(\C)CC/C=C(\C)CCC=C(C)C)c(OC)c2ccccc12`, the GI50 in the test on BT-549 was > 100 µM (inactive).

Consider `CCCCCc1c2nc(c(CCCCC)c3ccc([nH]3)c(CCCCC)c3nc(c(CCCCC)c4ccc1[nH]4)C=C3)C=C2`, for which the GI50 in the test with T47D and in the test on BT-549 was > 100 µM (inactive) in each case.

Regarding `CCCSc1ccc2[nH]c(N3C(=O)/C(=C/c4ccc(O)c(OC)c4)N=C3c3ccccc3)cc2c1`, the GI50 in the test with T47D is 22.3 µM (inactive); in the test on BT-549, 9.57 µM (inactive).

In the case of `CCOC(=O)CCC(NC(=O)c1ccc(OCc2nc3cc(C(F)(F)F)ccc3nc2-c2ccccc2)cc1)C(=O)OCC` (centres undefined), the values for the GI50 in the test with T47D and with BT-549 were 20.4 µM (inactive) and 56.6 µM (inactive), respectively.

Consider `OC1C#CCSCC#C/C=C\1` (centres undefined), for which the GI50 with BT-549 is > 100 µM (inactive).

In the case of `CCCN1C(=O)CN(S(=O)(=O)c2ccc(Cl)cc2)C1=O`, the GI50 in the test on T47D and in the test with BT-549 was > 100 µM (inactive) in each case.

Regarding `Cn1c(N/N=C/c2ccc(Cl)cc2)nc(-c2ccc(Cl)cc2)c(C#N)c1=O`, the GI50 in the test on T47D is > 100 µM (inactive); in the test on BT-549 it was 21.8 µM (inactive).

In the case of `CC(C)(Cl)C(Br)CCC(Br)(CCl)C(Cl)CBr` (centres undefined), the GI50 with T47D was > 10 µM (inactive).

For `Cc1ccc(S(=O)(=O)NC(=O)Nc2c(S(N)(=O)=O)cc(S(N)(=O)=O)c(Cl)c2Cl)cc1`, in the test on BT-549, the GI50 is > 100 µM (inactive).

On to `O=C(/C=C/C=C/c1ccccc1)c1ccccc1`, for which the GI50 in the test with T47D is 18.4 µM (inactive); in the test with BT-549, 18.8 µM (inactive).

Regarding `N=C(N)NS(=O)(=O)c1ccc(NC(=O)c2cccc3c(NNc4ccc(C(=O)O)cc4)c4ccccc4nc23)cc1`, the GI50 in the test on T47D is 39.6 µM (inactive); in the test on BT-549 it was > 100 µM (inactive).

Regarding `COC(=O)C(=O)C(C(=O)C(=O)Nc1nnc(S)[nH]1)c1nc2ccc([N+](=O)[O-])cc2nc1O` (centres undefined), the GI50 with T47D and in the test with BT-549 was > 100 µM (inactive) throughout.

As to `CC1CN(CCO)CC(C)O1` (centres undefined), the GI50 in the test on T47D and in the test on BT-549 was > 100 µM (inactive) throughout.

Consider `COC(=O)C(CC(C)C)NC(=O)CNC(=O)C(Cc1ccc(OCc2ccccc2)cc1)NC(=O)C(COCc1ccccc1)NC(=O)OC(C)(C)C` (centres undefined) (Boc-S(Bn)Y(Bn)GL-OMe; configuration not given here), for which the GI50 in the test on T47D and with BT-549 was > 100 µM (inactive) throughout.

With `CCOC(=O)CCCn1cc(C(=O)OC)nn1`, the GI50 in the test on T47D and with BT-549 was > 100 µM (inactive) in each case.

For the compound `CSc1c(C(=O)Nc2ccc(Cl)cc2)c(N)nn1-c1ccccc1`, the GI50 in the test with T47D and in the test on BT-549 was > 100 µM (inactive) in each case.

On to `CCCc1nc2c(n1CC)C(=O)c1ccccc1C2=O`, for which the GI50 is 28.5 µM (inactive) in the test with T47D and 79.8 µM (inactive) in the test on BT-549.

Consider `COc1cc2cc(C(=O)N3CC(COS(C)(=O)=O)c4ccc(O)cc43)[nH]c2c(OC)c1OC` (centres undefined), for which the GI50 in the test with T47D was 0.000552 µM (active).

`O=C(Nn1c(-c2ccccc2)nc2ccccc2c1=O)c1ccc(Cl)cc1`: the GI50 with T47D was 85.5 µM (inactive); in the test on BT-549, > 100 µM (inactive).

For the compound `C(/c1ccco1)=c1/nc(-c2ccccc2)n2c1nc1ccccc12`, the GI50 in the test with T47D was 1.08 µM (active); with BT-549, 15.8 µM (inactive).

Regarding `COC(=O)c1oc([N+](=O)[O-])c(Cl)c1Cl`, the results for the GI50 in the test with T47D and with BT-549 were 4.76 µM (inactive) and 7.98 µM (inactive), respectively.

Turning to `CC1=C[C@H](C[C@]2(C)c3c(c4c(C)cccc4oc3=O)O[C@@H]2C)OC1=O`, the GI50 with T47D was 50.8 µM (inactive); in the test with BT-549 it was 23.4 µM (inactive).

Take `CC1(C)OCC(C2OC(C)(C)OC2[C@H]2O[C@@]3(O)[C@H]4[C@H](C=CC[C@@H]42)[C@@H](OCc2ccccc2)[C@H](OCc2ccccc2)[C@H]3OCc2ccccc2)O1` (some centres undefined): the GI50 is 34.2 µM (inactive) in the test on T47D and 72.3 µM (inactive) in the test on BT-549.

Take `O=C1c2sccc2C(=O)c2c(CO)csc21`: the values for the GI50 in the test on T47D and in the test on BT-549 were 4.71 µM (inactive) and 3.59 µM (inactive), respectively.

Regarding `Cc1ccc(-c2c(C#N)c(S)n(NS(=O)(=O)c3ccccc3)c(=O)c2C#N)cc1`, the GI50 with BT-549 was 28.2 µM (inactive).

Turning to `COc1cc(C2SCC(=O)N2Cc2ccccc2)cc(OC)c1OC` (centres undefined), the GI50 in the test on BT-549 is > 100 µM (inactive).

As to `CC12CCC(C1)C(C)(C)C2OC(=O)c1ccccc1N` (centres undefined), the GI50 with T47D was 14.9 µM (inactive); in the test on BT-549 it was 19.1 µM (inactive).

`Nn1c(-c2ccccc2)n[nH]c1=O`: the GI50 in the test with T47D and in the test on BT-549 was > 100 µM (inactive) each time.

As for `OCCOCn1cc(Cn2ncc3c(SCc4ccccc4)ncnc32)nn1`, the GI50 was 27.5 µM (inactive) in the test on T47D and 26.9 µM (inactive) in the test with BT-549.

Consider `[N-]=[N+]=Nc1c([N+](=O)[O-])c(=O)n2c3c(cccc13)CCC2`, for which the values for the GI50 in the test on T47D and in the test with BT-549 were 5.42 µM (inactive) and 18.4 µM (inactive), respectively.

In the case of `O=C1CCSCCC(=O)Nc2ccccc2N1`, the GI50 in the test with T47D and in the test with BT-549 was > 100 µM (inactive) in each case.

As to `COC(=O)C(=O)C(C(=O)OC)C(=O)C(=O)Nc1c(Cl)cc([N+](=O)[O-])cc1Cl` (centres undefined), the GI50 in the test with T47D and in the test with BT-549 was > 100 µM (inactive) in each case.

Turning to `CCc1ccc(Nc2cc(=O)[nH]c(SCc3ccccc3)n2)cc1`, the GI50 in the test with T47D and in the test on BT-549 was > 100 µM (inactive) each time.

For the compound `COc1cccc2c1OC1(C=C2)Oc2ccccc2C(=O)N1C` (centres undefined), the GI50 was 31.9 µM (inactive) with T47D and 31.2 µM (inactive) in the test with BT-549.

With `CC1=CC(=O)CC(C)(C)C1/C=C/C(C)=C/C=C/C(C)=C/C=C/C=C(C)/C=C/C=C(C)/C=C/C1=C(C)CC(O)CC1(C)C` (centres undefined), the GI50 with T47D is 30.9 µM (inactive).

Regarding `C=CCOC(C)(C)C1=CCC(C)CC1` (centres undefined), in the test with BT-549, the GI50 was > 100 µM (inactive).

Regarding `CC(C)(C=O)CC(C#N)/C(=N\NC(N)=O)C(=O)Nc1ccccc1C(N)=O` (centres undefined), the GI50 with LXFL 529 and with XF498 was > 100 µM (inactive) throughout.

Regarding `Cc1c2oc(=O)c(C#N)cc2c2ccccn12`, the values for the GI50 with T47D and with BT-549 were > 100 µM (inactive) and 25.8 µM (inactive), respectively.

As for `O=c1c2cc(I)ccc2nc(SCc2n[nH]c(=S)o2)n1Cc1ccccc1`, the GI50 with T47D is 14.8 µM (inactive); in the test with BT-549, 18.9 µM (inactive).

In the case of `C[N+](C)([O-])CCCNc1ccnc2cccc([N+](=O)[O-])c12`, the results for the GI50 in the test with T47D and in the test on BT-549 were 40 µM (inactive) and 41.9 µM (inactive), respectively.

Take `S=C1CC(c2ccc(Cl)cc2)Sc2ccccc2N1` (centres undefined): the figures for the GI50 in the test with T47D and in the test on BT-549 were 40.4 µM (inactive) and 21.1 µM (inactive), respectively.

For the compound `O=C1Cc2c([nH]c3c(Br)cccc23)-c2ccccc2N1`, the GI50 with T47D and in the test with BT-549 was > 100 µM (inactive) in each case.

With `CC(=O)NC1=C(NCCCl)C(=O)c2ccccc2C1=O`, the values for the GI50 in the test with T47D and with BT-549 were 25.1 µM (inactive) and 47.9 µM (inactive), respectively.

The values are drawn from ChEMBL document CHEMBL1201862, “PubChem BioAssay data set” (2004).
